Earlier results, collected in patent US7192914B1, “Prevention of atherosclerosis and undesired blood clotting by reducing von Willebrand factor” (The Regents of the University of California, priority 1999, dated 2007).

Tested on: human endothelial cells
Conditions: human endothelial cells treated with tunicamycin; Wagner et al. (1986) J. Cell Biol. 102: 1320-4

tunicamycin
effect on secreted vWF: absence of secreted vWF
